Experiment [1] can be described thus: Binding affinity to human FKBP F36V mutant.
The nature of experiment [2]: Binding affinity to human FKBP F36V/L106P mutant-YFP fusion protein expressed in NIH3T3 cells after 24 hrs. The experiment is classed as cell-based.

Experimental findings from ChEMBL document CHEMBL1143178, “Synthesis and analysis of stabilizing ligands for FKBP-derived destabilizing domains” (Bioorg Med Chem Lett, 2008) are described below.

Consider `CC[C@H](C(=O)N1CCCC[C@H]1C(=O)O[C@H](CCc1ccc(OC)c(OC)c1)c1cccc(OCCN2CCOCC2)c1)c1cc(OC)c(OC)c(OC)c1`, for which binding in experiment [1] was characterised by a dissociation constant (Kd) of 2.4 nM. In addition, the 50% effective concentration (EC50) (as a rule, the concentration giving half of the maximal effect) in experiment [2] turned out to be 100 nM.
The matching figures for `CCC(CC)NC(=O)N1CCCC[C@H]1C(=O)O[C@H](CCc1ccc(OC)c(OC)c1)c1cccc(OCCN2CCOCC2)c1`: 29 nM and 1200 nM.
